Values quoted from earlier work, collected in US5514673A, “Pharmaceutical composition containing lipophilic drugs” (priority 1993, dated 1996).

Experiments:
[1] = physiological saline solution
[2] = for first pass effect: oral
[3] = in vivo
[4] = sublingual and buccal, sex hormone compositions
[5] = animal tests

Row | Molecule | suitability of intranasal administration [1] | oral effectiveness [2] | first pass effect [2] | nephrotoxicity and haemolytic activity [3] | effect on the absorption [4] | influence on drug uptake [5]
1 | C[C@]12CC[C@@H]3c4ccc(O)cc4CC[C@H]3[C@@H]1CC[C@@H]2O [17β-estradiol] | unsuitable | very limited oral effectiveness | high first pass effect | – | – | –
2 | CC(=O)[C@H]1CC[C@H]2[C@@H]3CCC4=CC(=O)CC[C@]4(C)[C@H]3CC[C@]12C [Progesterone, progesterone] | – | very limited oral effectiveness | high first pass effect | – | – | –
3 | dimethyl-β-cyclodextrin | – | – | – | nephrotoxicity and haemolytic activity | virtually no effect on the absorption | adversely influence the drug uptake
